How the values were obtained:
SNB-19 [1] = conditions: 48 hours, five 10-fold dilutions starting from 100 μM
MCF7 [2] = conditions: 48 hours, five 10-fold dilutions starting from 100 μM
U251 = conditions: 48 hours, five 10-fold dilutions starting from 100 μM
RXF 393 = conditions: 48 hours, five 10-fold dilutions starting from 100 μM
NCI-H460 = assay: cells; conditions: Homo sapiens, NCI-H460, 48 h
M14 = conditions: 48 hours, five 10-fold dilutions starting from 100 μM
ACHN = conditions: 48 hours, five 10-fold dilutions starting from 100 μM
SNB-19 [3] = assay: cells; conditions: Homo sapiens, SNB-19, 48 h
NCI-H322M = assay: cells; conditions: Homo sapiens, 48 h
SK-OV-3 [4] = conditions: 48 hours, five 10-fold dilutions starting from 100 μM
KM12 = assay: NCI screen antiproliferative activity, sulforhodamine B, Colon Cancer panel; assay type: cell-based, human; conditions: 48 hours, five 10-fold dilutions starting from 100 μM
MCF7 [5] = assay: cells; conditions: Homo sapiens, MCF7, 48 h
LOX IMVI = assay: NCI screen antiproliferative activity, sulforhodamine B, Melanoma panel; assay type: cell-based, human; conditions: 48 hours, five 10-fold dilutions starting from 100 μM
NCI-H226 = conditions: 48 hours, five 10-fold dilutions starting from 100 μM
SF-268 = assay: cells; conditions: Homo sapiens, SF-268, 48 h
A549/ATCC = assay: cells; conditions: Homo sapiens, A549, 48 h
OVCAR-3 = assay: cells; conditions: Homo sapiens, OVCAR-3, 48 h
SR = assay: NCI screen antiproliferative activity, sulforhodamine B, Leukemia panel; assay type: cell-based, human; conditions: 48 hours, five 10-fold dilutions starting from 100 μM
SK-MEL-2 [6] = conditions: 48 hours, five 10-fold dilutions starting from 100 μM
SK-OV-3 [7] = assay: cells; conditions: Homo sapiens, SK-OV-3, 48 h
SF-295 = assay: cells; conditions: Homo sapiens, SF-295, 48 h
SK-MEL-2 [8] = assay: cells; conditions: Homo sapiens, SK-MEL-2, 48 h
CAKI-1 = conditions: 48 hours, five 10-fold dilutions starting from 100 μM
EKVX [9] = conditions: 48 hours, five 10-fold dilutions starting from 100 μM
HCT-116 [10] = conditions: 48 hours, five 10-fold dilutions starting from 100 μM
HOP-92 [11] = assay: cells; conditions: Homo sapiens, HOP-92, 48 h
HCT-15 [12] = assay: cells; conditions: Homo sapiens, HCT-15, 48 h
PC-3 = conditions: 48 hours, five 10-fold dilutions starting from 100 μM
RPMI-8226 = assay: NCI screen antiproliferative activity, sulforhodamine B, Leukemia panel; assay type: cell-based, human; conditions: 48 hours, five 10-fold dilutions starting from 100 μM
EKVX [13] = assay: cells; conditions: Homo sapiens, 48 h
SF-539 = assay: cells; conditions: Homo sapiens, SF-539, 48 h
HCC-2998 = conditions: 48 hours, five 10-fold dilutions starting from 100 μM
TK-10 = conditions: 48 hours, five 10-fold dilutions starting from 100 μM
SW-620 = assay: NCI screen antiproliferative activity, sulforhodamine B, Colon Cancer panel; assay type: cell-based, human; conditions: 48 hours, five 10-fold dilutions starting from 100 μM
HOP-92 [14] = conditions: 48 hours, five 10-fold dilutions starting from 100 μM
UO-31 = assay: cells; conditions: Homo sapiens, UO-31, 48 h
UACC-257 = conditions: 48 hours, five 10-fold dilutions starting from 100 μM
OVCAR-5 [15] = conditions: 48 hours, five 10-fold dilutions starting from 100 μM
HCT-116 [16] = assay: cells; conditions: Homo sapiens, HCT-116, 48 h
OVCAR-5 [17] = assay: cells; conditions: Homo sapiens, OVCAR-5, 48 h
SK-MEL-5 = assay: NCI screen antiproliferative activity, sulforhodamine B, Melanoma panel; assay type: cell-based, human; conditions: 48 hours, five 10-fold dilutions starting from 100 μM
NCI-H522 = assay: cells; conditions: Homo sapiens, NCI-H522, 48 h
NCI-H23 = conditions: 48 hours, five 10-fold dilutions starting from 100 μM
HCT-15 [18] = conditions: 48 hours, five 10-fold dilutions starting from 100 μM
786-0 = conditions: 48 hours, five 10-fold dilutions starting from 100 μM

CCCCCCCCNCCC[C@@H](C)[C@H]1CC[C@H]2[C@@H]3[C@H](OCCCN)C[C@@H]4C[C@H](OCCCN)CC[C@]4(C)[C@H]3C[C@H](OCCCN)[C@]12C [CSA-13]
TGI (SNB-19 [1]): 5.05 µM | TGI (MCF7 [2]): 3.09 µM | TGI (U251): 3.05 µM | TGI (RXF 393): 15.6 µM | GI50 (NCI-H460): 1.21 µM | CC50 (NCI-H460; read-out: LC50): 15.5 µM | TGI (M14): 3.52 µM | TGI (ACHN): 3.68 µM | GI50 (SNB-19 [3]): 1.49 µM | CC50 (SNB-19 [3]; read-out: LC50): 89.3 µM | GI50 (NCI-H322M): 1.36 µM | CC50 (NCI-H322M; read-out: LC50): > 100 µM | TGI (SK-OV-3 [4]): 16.3 µM | TGI (KM12): 2.76 µM | GI50 (KM12; Homo sapiens): 0.586 µM | GI50 (MCF7 [5]): 1.63 µM | CC50 (MCF7 [5]; read-out: LC50): 5.85 µM | TGI (LOX IMVI): 1.73 µM | GI50 (LOX IMVI; Homo sapiens): 0.378 µM | TGI (NCI-H226): 12.8 µM | GI50 (SF-268): 1.5 µM | CC50 (SF-268; read-out: LC50): 9.14 µM | GI50 (A549/ATCC): 2.01 µM | CC50 (A549/ATCC; read-out: LC50): 45.9 µM | GI50 (OVCAR-3): 2.24 µM | CC50 (OVCAR-3; read-out: LC50): 88 µM | TGI (SR): 2.29 µM | GI50 (SR; Homo sapiens): 0.272 µM | TGI (SK-MEL-2 [6]): >100 µM | GI50 (SK-OV-3 [7]): 3.45 µM | CC50 (SK-OV-3 [7]; read-out: LC50): 93.1 µM | GI50 (SF-295): 0.496 µM | CC50 (SF-295; read-out: LC50): 24 µM | GI50 (SK-MEL-2 [8]): 4.51 µM | CC50 (SK-MEL-2 [8]; read-out: LC50): > 100 µM | TGI (CAKI-1): 10.6 µM | TGI (EKVX [9]): 3.38 µM | TGI (HCT-116 [10]): 2.61 µM | GI50 (HOP-92 [11]): 0.408 µM | CC50 (HOP-92 [11]; read-out: LC50): > 100 µM | GI50 (HCT-15 [12]): 2.63 µM | CC50 (HCT-15 [12]; read-out: LC50): 63.9 µM | TGI (PC-3): >100 µM | TGI (RPMI-8226): 0.911 µM | GI50 (RPMI-8226; Homo sapiens): 0.266 µM | GI50 (EKVX [13]): 1.32 µM | CC50 (EKVX [13]; read-out: LC50): 8.62 µM | GI50 (SF-539): 0.318 µM | CC50 (SF-539; read-out: LC50): 4.89 µM | TGI (HCC-2998): 3.98 µM | TGI (TK-10): 4.70 µM | TGI (SW-620): 2.67 µM | GI50 (SW-620; Homo sapiens): 1.16 µM | TGI (HOP-92 [14]): 21.2 µM | GI50 (UO-31): 1.49 µM | CC50 (UO-31; read-out: LC50): > 100 µM | TGI (UACC-257): 9.00 µM | TGI (OVCAR-5 [15]): 9.44 µM | GI50 (HCT-116 [16]): 0.87 µM | CC50 (HCT-116 [16]; read-out: LC50): 7.25 µM | GI50 (OVCAR-5 [17]): 1.55 µM | CC50 (OVCAR-5 [17]; read-out: LC50): 58.4 µM | TGI (SK-MEL-5): 1.92 µM | GI50 (SK-MEL-5; Homo sapiens): 0.504 µM | GI50 (NCI-H522): 2.59 µM | CC50 (NCI-H522; read-out: LC50): > 100 µM | TGI (NCI-H23): 3.12 µM | TGI (HCT-15 [18]): 14.8 µM | TGI (786-0): 2.26 µM

Reference: patent US9943529B2, “Methods for reducing cellular proliferation and treating certain diseases” (BRIGHAM YOUNG UNIVERSITY, priority 2013, dated 2018)
